Measured values from publication PMC4534190, “Characterization of the MUC1-C Cytoplasmic Domain as a Cancer Target” (PLoS ONE, 2015).
Values belong to the molecule of their own block, whether it stands above or below them. Non-standard residues stand in square brackets, D forms with d. Residues, ends and D or L forms follow the SMILES beside them. No end group written: not given here. *: point of attachment. FITC = O=C1OC2(c3ccc(O)cc3Oc3cc(O)ccc32)c2ccc(NC(=S)*)cc21

Key:
DsRedMN1-MUC1 = assay: Localization in 293T cells expressing DsRedMN1-MUC1, immunofluorescence microscopy; type: cell-based, human; details: 5 μM FITC-GO-203, 3 h
Protocol: (§1) Human ZR-75-1 breast cancer (ATTC) and H1975 lung cancer (ATTC) cell lines were grown in RPMI 1640 supplemented with 10% heat-inactivated fetal bovine serum (HI-FBS), 100 units/ml penicillin, and 100 μg/ml streptomycin. 293T cells were grown in DMEM with 10% HI-FBS, antibiotics, and 2 mmol/L L-glutamine. Cells were treated with FITC conjugated-GO-202 (FITC-GO-202), FITC-GO-203 or unconjugated GO-203 synthesized by the MIT Biopolymer Laboratory (Cambridge, MA) and AnaSpec, Inc (San Jose, CA). The p3XFLAG-CMV-10 (Sigma, St. Louis, MO), pEGFP-C1 and pDsRed-Monomer-N1 (Clontech, Mountain View, CA) vectors were used for transfection of rat and dog MUC1-CD and full length human MUC1 in 293T cells in the presence of Lipofectamine 2000 (Life Technologies, Grand Island, NY).
(§2) 293T cells were transfected with MUC1-pDsRed-Monomer-N1 in the presence of Lipofectamine 2000 for 48 h. The cells were then incubated with FITC-GO-203 for 3 h and examined using a Nikon-deconvolution wide-field epifluorescence system with a 100x oil immersion objective. Images were captured using NIS-element software (Nikon) and analyzed by ImageJ software.

293T cells = assay: Localization in untransfected 293T cells, immunofluorescence microscopy; type: cell-based; details: FITC-GO-203 alone, 5 μM, 3 h
Protocol: as §1, §2

endogenous MUC1-C [1] = assay: Binding to endogenous MUC1-C in ZR-75-1 cells, coimmunoprecipitation; type: cell-based, human; details: 5 μM FITC-GO-203 overnight, non-reducing
Protocol: as §1
(§3) Cell lysates were prepared as described. Soluble proteins were immunoprecipitated with anti-FLAG (Sigma, St. Louis, MO), anti-MUC1-C (Thermo Fisher Scientific, Waltham, MA) or a control IgG. The precipitates and lysates not subjected to immunoprecipitation were immunoblotted with anti-MUC1-C, anti-GFP (Abcam, Cambridge, MA), anti-FLAG and anti-FITC (Life Technologies, Grand Island, NY). Reactivity was detected with horseradish peroxidase-conjugated secondary antibodies and chemiluminescence.

GST-MUC1-CD(AQA) = assay: Binding to GST-MUC1-CD(AQA) mutant; details: CQC motif mutated to AQA; only background fluorescence; data not shown; FITC-labeled peptide, 1 h at 37°C
Protocol: Binding affinities of FITC-GO-202 and FITC-GO-203 were determined by the saturation binding method. In short, 96-well glutathione- or nickel-coated plates (Thermo Fisher, Waltham, MA) were incubated with 150 μl of PBS buffer containing 21.45 μg/ml of GST-MUC1-CD, GST-MUC1-CD(AQA) or His-MUC1-CD overnight at 4°C followed by washing with 50 mM Tris and 150 mM NaCl containing 0.1% Tween-20 (TBST), and blocking with 0.5% BSA in TBS. The plates were then washed 3 times with TBST. FITC-GO-202 or FITC-GO-203 was added to the wells at 0.19 μM to 25 μM. Nonspecific binding was determined in the presence of GST alone. Plates were incubated for 1 h at 37°C on a shaker followed by washing 3 times with binding buffer. Fluorescence intensity was determined on an Infinite M1000 PRO Tecan Microplate Reader (Tecan, NC) with excitation at 490 nm and emission at 525 nm. GraphPad Prism 4.0 Software (San Diego, CA) was used to calculate the equilibrium dissociation constant (Kd) by a non-linear regression method.
(§4) Vectors expressing GST-MUC1-CD, GST-MUC1-CD(AQA) and His-MUC1-CD, GFP-MUC1-CD and FLAG-MUC1-CD have been described. His-tagged MUC1-CD (rat and dog) were cloned in pET28a vector (Clontech, Mountain View, CA) and expressed in E. coli BL21(DE3).

endogenous MUC1-C [2] = assay: Binding to endogenous MUC1-C in H1975 cells, coimmunoprecipitation; type: cell-based, human; details: 5 μM FITC-GO-203 overnight, non-reducing
Protocol: as §1, §3

[3] = system: rat GFP-MUC1-CD and FLAG-MUC1-CD; assay: MUC1-CD homodimerization in 293T cells, rat, coimmunoprecipitation; type: cell-based; details: 5 μM each day for 3 days, anti-FLAG precipitation
Protocol: as §1, §3

human His-MUC1-CD = assay: In vitro dimerization of human His-MUC1-CD; type: biochemical; details: CP-2 or GO-203 150 μM; 1 h at room temperature; non-reducing gel, anti-MUC1-C immunoblot
Protocol: as §4
(§5) Purified His-MUC1-CD was incubated in PBS or increasing amounts of GO-203 for 1 h at room temperature as described. Proteins were then separated in non-reducing polyacrylamide gels and analyzed by immunoblotting.

[4] = system: human GFP-MUC1-CD and FLAG-MUC1-CD; assay: MUC1-CD homodimerization in 293T cells, human, coimmunoprecipitation; type: cell-based; details: 5 μM each day for 3 days, anti-FLAG precipitation
Protocol: as §1, §3

[5] = system: MUC1-C-expressing carcinoma and leukemia cells; design: method as in PMID 21421804, PMID 23867470; details: ref [19],[32]; cited from earlier work
[6] = system: dog GFP-MUC1-CD and FLAG-MUC1-CD; assay: MUC1-CD homodimerization in 293T cells, dog, coimmunoprecipitation; type: cell-based; details: 5 μM each day for 3 days, anti-FLAG precipitation
Protocol: as §1, §3

His-MUC1-CD (dog) (dog) = assay: non-reducing PAGE with immunoblot; purified His-MUC1-CD in PBS (pH 7.4) or with GO-203 (50, 150, 450 μM) for 1 h at room temperature; immunoblot with anti-MUC1-C
[7] = biological target: His-MUC1-CD (human) (human); assay: as above
His-MUC1-CD (rat) (rat) = assay: as above
GST = assay: MS-bridge analysis of disulfide linkage, MALDI-TOF-MS, GST control; type: binding; details: tryptic digest of GST+GO-203, dimer peak not observed
Protocol: (§6) Binding experiments with MUC1-CD and GO-203 were performed as described. Complexes were eluted from the glutathione beads, dialyzed and concentrated using amicon ultra centrifugal filters (Millipore, Billerica, MA). The complexes were then subjected to non-reducing electrophoresis and stained with Coomassie Blue. Protein bands were excised and analyzed by MALDI-TOF-MS as described. Briefly, gels were cut into small, uniform pieces; the gel pieces were dehydrated with acetonitrile and then rehydrated in 100 mM ammonium bicarbonate followed by 2 washing and drying cycles with ammonium bicarbonate and acetonitrile, respectively. After complete dehydration, gel pieces were suspended in 12.5 ng/μl trypsin in 50 mM ammonium bicarbonate (50 μl). In-gel digestion was carried out at 37°C for 10–12 h and the samples were acidified with 50 μl of 0.5% TFA. Thirty μl of this mixture was desalted by C-18 containing Zip-Tip (Millipore, Billerica, MA). Trypsin-digested peptides were analyzed by MALDI-TOF-MS (ABI-4800). MALDI-TOF-MS analyses were performed using a Reflector method that was optimized for acquisition for the mass range of 700–3500 amu. Data was collected and analyzed using the data Explorer software package (AB-Sciex, Framingham, MA) and MASCOT (ver.2.0.04, Matrix Science, Boston, MA). MS-bridge analysis was done using Protein Prospector (ver.4.27.2 basic and ver.5.0, UCSF). […]

GST-MUC1-CD = biological target: T1, GST-MUC1-CD (Homo sapiens, UniProt P15941); assay: MS-bridge analysis of disulfide linkage, MALDI-TOF-MS; type: binding; details: incubation with purified GST-MUC1-CD, tryptic digest, single disulfide bridge at the CQC motif
T1 construct: made in house
T1 sequence (P15941 1182-1255 limits assumed): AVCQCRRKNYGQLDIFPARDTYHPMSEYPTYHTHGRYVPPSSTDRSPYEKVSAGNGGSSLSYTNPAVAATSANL
Protocol: as §6

dog His-MUC1-CD = assay: In vitro dimerization of dog His-MUC1-CD; type: biochemical; details: GO-203 50, 150 and 450 μM; 1 h at room temperature; non-reducing gel, anti-MUC1-C immunoblot
Protocol: as §4, §5

rat His-MUC1-CD = assay: In vitro dimerization of rat His-MUC1-CD; type: biochemical; details: GO-203 50, 150 and 450 μM; 1 h at room temperature; pH 7.4; non-reducing gel, anti-MUC1-C immunoblot
Protocol: as §4, §5

GST-MUC1-CD (human) = assay: saturation binding of FITC-peptide to protein on coated plates (fluorescence); GST-MUC1-CD held on glutathione-coated 96-well plates; FITC-peptide 0.19 μM to 25 μM, 1 h at 37°C; nonspecific binding from GST alone; apparent Kd by non-linear regression
[8] = biological target: His-MUC1-CD (human) (human); assay: saturation binding of FITC-peptide to protein on coated plates (fluorescence); His-MUC1-CD held on nickel-coated 96-well plates; FITC-GO-203 0.19 μM to 25 μM, 1 h at 37°C; apparent Kd by non-linear regression

Molecule: N=C(N)NCCC[C@@H](NC(=O)[C@@H](CCCNC(=N)N)NC(=O)[C@@H](CS)NC(=O)[C@@H](CCC(N)=O)NC(=O)[C@@H](CS)NC(=O)[C@@H](CCCNC(=N)N)NC(=O)[C@@H](CCCNC(=N)N)NC(=O)[C@@H](CCCNC(=N)N)NC(=O)[C@@H](CCCNC(=N)N)NC(=O)[C@@H](CCCNC(=N)N)NC(=O)[C@@H](CCCNC(=N)N)NC(=O)[C@@H](CCCNC(=N)N)NC(=O)[C@@H](CCCNC(=N)N)NC(=O)[C@@H](CCCNC(=N)N)NC(=S)Nc1ccc2c(c1)C(=O)OC21c2ccc(O)cc2Oc2cc(O)ccc21)C(=O)N[C@H](CCCCN)C(=O)N[C@H](CC(N)=O)C(=O)O [FITC-GO-203] ({FITC}-[dR][dR][dR][dR][dR][dR][dR][dR][dR][dC][dQ][dC][dR][dR][dK][dN]-OH; N-terminus and C-terminus assumed)
co-localization of DsRed (MUC1) and FITC signals (DsRedMN1-MUC1; 293T cells expressing DsRedMN1-MUC1): co-localization of the DSRed and FITC signals (Red+Green→Yellow) was observed along the membrane | FITC staining in cells expressing MUC1 compared to the MUC1-null setting (DsRedMN1-MUC1; 293T cells): brighter | localization of FITC signals (293T cells): localized along the membrane and in the cytosol | complex formation with endogenous MUC1-C (endogenous MUC1-C [1]; ZR-75-1 breast cancer cells, anti-MUC1-C precipitates, anti-FITC immunoblot): forms complexes with MUC1-C | interaction with MUC1-C monomeric and oligomeric forms (endogenous MUC1-C [1]; ZR-75-1 cells, entire immunoblots): interacts with the different MUC1-C monomeric and oligomeric forms | interaction with GST-MUC1-CD(AQA) (GST-MUC1-CD(AQA)): no interaction was evident | interaction with MUC1-C monomeric and oligomeric forms (endogenous MUC1-C [2]; H1975 cells, entire immunoblots): interacts with the different MUC1-C monomeric and oligomeric forms | association with endogenous MUC1-C (endogenous MUC1-C [2]; H1975 lung cancer cells, anti-MUC1-C precipitates, anti-FITC immunoblot): associates with endogenous MUC1-C

Molecule: AQARRKN [CP-2, control peptide, which includes AQARRKN, reference compound]
inhibition of rat FLAG-MUC1-CD/GFP-MUC1-CD complexes in cells [3]: no apparent effect | inhibition of human His-MUC1-CD homodimerization (human His-MUC1-CD): no effect | inhibition of human MUC1-CD homodimerization in cells [4]: no effect | inhibition of survival of MUC1-C-expressing carcinoma and leukemia cells [5]: not CP-2, inhibits the survival of MUC1-C-expressing carcinoma and leukemia cells | inhibition of dog MUC1-CD homodimerization in cells [6]: no effect

stoichiometry N (His-MUC1-CD (dog) (dog)): 2
Molecule: His-MUC1-CD (dog) (domain or fragment)

stoichiometry N [7]: 2
Molecule: His-MUC1-CD (human) (domain or fragment)

stoichiometry N (His-MUC1-CD (rat) (rat)): 2
Molecule: His-MUC1-CD (rat) (domain or fragment)

Molecule: [R]9-CQCRRKN [GO-203, peptide in which the poly-Arg cell-penetrating domain is linked to CQCRRKN (D-amino acids)]
formation of disulfide bridges with GST (GST): not with GST | formation of disulfide bridges with MUC1-CD (GST-MUC1-CD): forms disulfide bridges specifically with MUC1-CD | inhibition of rat FLAG-MUC1-CD/GFP-MUC1-CD complexes in cells [3]: inhibition of the FLAG-MUC1-CD/GFP-MUC1-CD complexes | inhibition of human His-MUC1-CD homodimerization (human His-MUC1-CD): effectively inhibited | inhibition of dog His-MUC1-CD homodimerization (dog His-MUC1-CD): effectively inhibited | inhibition of human MUC1-CD homodimerization in cells [4]: inhibition of MUC1-CD homodimerization | inhibition of rat His-MUC1-CD homodimerization (rat His-MUC1-CD): decreased homodimerization | inhibition of survival of MUC1-C-expressing carcinoma and leukemia cells [5]: inhibits the survival of MUC1-C-expressing carcinoma and leukemia cells | inhibition of dog MUC1-CD homodimerization in cells [6]: inhibition of MUC1-CD homodimerization

Kd (GST-MUC1-CD (human)): 630 nM | Kd [8]: 860 nM
B1: FITC-GO-203 (peptide)
peptide: {FITC}-[dR][dR][dR][dR][dR][dR][dR][dR][dR][dC][dQ][dC][dR][dR][dK][dN]
modifications: cysteine pairing not given here

Kd (GST-MUC1-CD (human)): 880 nM
B2: FITC-GO-202 (peptide)
peptide: {FITC}-RRRRRRRRRCQCRRKN
modifications: cysteine pairing not given here
